Reference: PubChem BioAssay AID1919008 (Molecular Pharmacology Branch, DTP, NCI, 2023)
“And” between values parts separate entries of the source, which are not always exact repeats. Equal values may be shown once.

Test system: DMS-114 complex spheroids with HUVEC/MSC, growth % test/control
Assay: Anticancer human tumor DMS-114 cell line growth inhibition [AhR];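 note: spheroids exposed to agents for 7 days before readout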;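 for viability, T/C: 100% = DMSO vehicle control wells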
Settings: for IC50: curve of first compound; for viability, T/C: stronger effect = lower value; active = viability on the fitted dose curve at most 10% of control; inactive = the rest
Outline: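 Spheroids combined tumor cells with HUVEC endothelial cells and human MSCs as stroma. AhR antagonists were paired with standard or investigational drugs, each dosed in half-log steps down from near clinical Cmax, or from 10 microM where Cmax was unknown.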

[1] = second compound 0.1 µM, first compound 0.0316 µM
[2] = second compound 0.1 µM, first compound 0.1 µM
[3] = second compound 0.1 µM, first compound 0.316 µM
[4] = second compound 0.1 µM, first compound 1 µM
[5] = second compound 0.1 µM, first compound 3.16 µM
[6] = second compound 0.1 µM, first compound 10 µM
[7] = second compound 0.316 µM, first compound 0.0316 µM
[8] = second compound 0.316 µM, first compound 0.1 µM
[9] = second compound 0.316 µM, first compound 0.316 µM
[10] = second compound 0.316 µM, first compound 1 µM
[11] = second compound 0.316 µM, first compound 3.16 µM
[12] = second compound 0.316 µM, first compound 10 µM
[13] = second compound 1 µM, first compound 0.0316 µM
[14] = second compound 1 µM, first compound 0.1 µM
[15] = second compound 1 µM, first compound 0.316 µM
[16] = second compound 1 µM, first compound 1 µM
[17] = second compound 1 µM, first compound 3.16 µM
[18] = second compound 1 µM, first compound 10 µM
[19] = second compound 3.16 µM, first compound 0.0316 µM
[20] = second compound 3.16 µM, first compound 0.1 µM
[21] = second compound 3.16 µM, first compound 0.316 µM
[22] = second compound 3.16 µM, first compound 1 µM
[23] = second compound 3.16 µM, first compound 3.16 µM
[24] = second compound 3.16 µM, first compound 10 µM
[25] = second compound 10 µM, first compound 0.0316 µM
[26] = second compound 10 µM, first compound 0.1 µM
[27] = second compound 10 µM, first compound 0.316 µM
[28] = second compound 10 µM, first compound 1 µM
[29] = second compound 10 µM, first compound 3.16 µM
[30] = second compound 10 µM, first compound 10 µM

CC(C)CC(NC(=O)C(Cc1ccccc1)NC(=O)c1cnccn1)B(O)O (stereo unspecified) + Cc1cncc(-c2nc(NCCc3c[nH]c4ccccc34)c3ncn(C(C)C)c3n2)c1
4.67 nM: IC50 (second compound 3.16 µM)
< 0.949 nM: IC50 (second compound 10 µM)
5.45 nM: IC50 (second compound 0.1 µM)
active: viability, T/C (second compound 0.1 µM, first compound 0.00949 µM) 2.1% | viability, T/C (second compound 0.1 µM, first compound 0.03 µM) 0.04% | viability, T/C (second compound 0.1 µM, first compound 0.0949 µM) 0.04% | viability, T/C (second compound 0.1 µM, first compound 0.3 µM) 0.16% | viability, T/C (second compound 0.316 µM, first compound 0.00949 µM) 1.97% | viability, T/C (second compound 0.316 µM, first compound 0.03 µM) 0.04% | viability, T/C (second compound 0.316 µM, first compound 0.0949 µM) 0.03% | viability, T/C (second compound 0.316 µM, first compound 0.3 µM) 0.15% | viability, T/C (second compound 1 µM, first compound 0.00949 µM) 1.76% | viability, T/C (second compound 1 µM, first compound 0.03 µM) 0.45% | viability, T/C (second compound 1 µM, first compound 0.0949 µM) 0.02% | viability, T/C (second compound 1 µM, first compound 0.3 µM) 0.26% | viability, T/C (second compound 3.16 µM, first compound 0.00949 µM) 0.87% | viability, T/C (second compound 3.16 µM, first compound 0.03 µM) 0.04% | viability, T/C (second compound 3.16 µM, first compound 0.0949 µM) 0.04% | viability, T/C (second compound 3.16 µM, first compound 0.3 µM) 0.18% | viability, T/C (second compound 10 µM, first compound 0.00949 µM) 0.42% | viability, T/C (second compound 10 µM, first compound 0.03 µM) 0.21% | viability, T/C (second compound 10 µM, first compound 0.0949 µM) 0.21% | viability, T/C (second compound 10 µM, first compound 0.3 µM) 0.3%
inactive: viability, T/C (second compound 0.1 µM, first compound 0.000949 µM) 113% | viability, T/C (second compound 0.1 µM, first compound 0.003 µM) 102% | viability, T/C (second compound 0.316 µM, first compound 0.000949 µM) 102% | viability, T/C (second compound 0.316 µM, first compound 0.003 µM) 94.3% | viability, T/C (second compound 1 µM, first compound 0.000949 µM) 101% | viability, T/C (second compound 1 µM, first compound 0.003 µM) 99.7% | viability, T/C (second compound 3.16 µM, first compound 0.000949 µM) 93.8% | viability, T/C (second compound 3.16 µM, first compound 0.003 µM) 80.7% | viability, T/C (second compound 10 µM, first compound 0.000949 µM) 37.7% | viability, T/C (second compound 10 µM, first compound 0.003 µM) 28.9%
5.38 nM: IC50 (second compound 1 µM)
5.21 nM: IC50 (second compound 0.316 µM)

Nc1ccn(C2OC(CO)C(O)C2(F)F)c(=O)n1 (stereo unspecified) + CC(CO)NC(=O)c1cc(-c2ccc(Cl)cc2)nn(-c2cnn(C)c2)c1=O
< 31.6 nM: IC50 (second compound 0.1 µM) | IC50 (second compound 0.316 µM) | IC50 (second compound 1 µM) | IC50 (second compound 3.16 µM) | IC50 (second compound 10 µM)
inactive: viability, T/C [1] 12.1% | viability, T/C [2] 11.5% | viability, T/C [3] 11.5% | viability, T/C [4] 11.7% | viability, T/C [5] 11.6% | viability, T/C [6] 10.9% | viability, T/C [7] 11.8% | viability, T/C [8] 11.9% | viability, T/C [9] 13% | viability, T/C [10] 10.9% | viability, T/C [11] 11.6% | viability, T/C [12] 12.8% | viability, T/C [13] 12.6% | viability, T/C [14] 14.1% | viability, T/C [15] 14.4% | viability, T/C [16] 12.3% | viability, T/C [17] 10.6% | viability, T/C [18] 12.6% | viability, T/C [19] 10.6% | viability, T/C [20] 13.3% | viability, T/C [21] 12.9% | viability, T/C [22] 10.6% | viability, T/C [23] 11.2% | viability, T/C [24] 11.1% | viability, T/C [25] 11.6% | viability, T/C [26] 11.8% | viability, T/C [27] 12.7% | viability, T/C [28] 11.3% | viability, T/C [29] 12.7% | viability, T/C [30] 11.9%

COc1cc(C2c3cc4c(cc3C(OC3OC5COC(C)OC5C(O)C3O)C3COC(=O)C23)OCO4)cc(OC)c1O (stereo unspecified) + Cc1ccccc1N=Nc1ccc(NC(=O)c2ccnn2C)c(C)c1
1740 nM: IC50 (second compound 0.1 µM)
1650 nM: IC50 (second compound 3.16 µM)
inactive: viability, T/C [1] 99.4% | viability, T/C [2] 99.1% | viability, T/C [3] 93.4% | viability, T/C [4] 59.7% | viability, T/C [5] 40.4% | viability, T/C [6] 26.5% | viability, T/C [7] 105% | viability, T/C [8] 100% | viability, T/C [9] 84.4% | viability, T/C [10] 56.9% | viability, T/C [11] 43% | viability, T/C [12] 25.5% | viability, T/C [13] 97.7% | viability, T/C [14] 92.4% | viability, T/C [15] 84.4% | viability, T/C [16] 52.2% | viability, T/C [17] 43.6% | viability, T/C [18] 29.6% | viability, T/C [19] 100% | viability, T/C [20] 96.4% | viability, T/C [21] 81.7% | viability, T/C [22] 59.4% | viability, T/C [23] 37.9% | viability, T/C [24] 26.4% | viability, T/C [25] 90.7% | viability, T/C [26] 92.5% | viability, T/C [27] 82.7% | viability, T/C [28] 57.6% | viability, T/C [29] 42.2% | viability, T/C [30] 27.7%
1760 nM: IC50 (second compound 0.316 µM)
1750 nM: IC50 (second compound 10 µM)
1470 nM: IC50 (second compound 1 µM)

CC1COCCN1c1cc(-c2ccnn2C)c2ccnc(-c3ccn[nH]3)c2n1 (stereo unspecified)
inactive: viability, T/C (compound 0.00316 µM) 89.5% and 94.4% and 96.2% | viability, T/C (compound 0.01 µM) 76.2% and 102% and 80.5% | viability, T/C (compound 0.0316 µM) 50.2% and 101% and 62.9% | viability, T/C (compound 0.1 µM) 32.1% and 81.2% and 45% | viability, T/C (compound 0.316 µM) 21.2% and 65.8% and 31.5% | viability, T/C (compound 1 µM) 10.6% and 33.4% and 15.8%
